The supplement of paper PMC10307832

Key:
Assay in all cases: relative viability (nuclei count vs DMSO), 5 days (fraction); higher = more cells survive
Irinotecan + Foretinib = compound: CCc1c2c(nc3ccc(OC(=O)N4CCC(N5CCCCC5)CC4)cc13)-c1cc3c(c(=O)n1C2)COC(=O)[C@]3(O)CC [Irinotecan] + COc1cc2c(Oc3ccc(NC(=O)C4(C(=O)Nc5ccc(F)cc5)CC4)cc3F)ccnc2cc1OCCCN1CCOCC1 [Foretinib] (partner 0.25 µM)
In short: (§1)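 Values are medians from duplicate plates. Each reflects relative viability, defined as the nuclei count of treated wells over that of vehicle wells. Lung cancer cell lines in 1536-well plates were pin-tool dosed one day after seeding with one drug alone or with a fixed anchor-drug dose plus five library-drug doses (not always all listed) in √10 steps, then fixed, stained and imaged at 4× after 5 days.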

MK-8033 + Dasatinib = compound: Cn1cc(-c2cnc3ccc4ccc(CS(=O)(=O)NCc5ccccn5)cc4c(=O)c3c2)cn1 [MK-8033] + Cc1nc(Nc2ncc(C(=O)Nc3c(C)cccc3Cl)s2)cc(N2CCN(CCO)CC2)n1 [Dasatinib] (partner 0.075 µM)
In short: as §1

Irinotecan + Pemetrexed = compound: CCc1c2c(nc3ccc(OC(=O)N4CCC(N5CCCCC5)CC4)cc13)-c1cc3c(c(=O)n1C2)COC(=O)[C@]3(O)CC [Irinotecan] + Nc1nc2[nH]cc(CCc3ccc(C(=O)N[C@@H](CCC(=O)O)C(=O)O)cc3)c2c(=O)[nH]1 [Pemetrexed] (partner 0.2 µM)
In short: as §1

MK-8033 + Pemetrexed = compound: Cn1cc(-c2cnc3ccc4ccc(CS(=O)(=O)NCc5ccccn5)cc4c(=O)c3c2)cn1 [MK-8033] + Nc1nc2[nH]cc(CCc3ccc(C(=O)N[C@@H](CCC(=O)O)C(=O)O)cc3)c2c(=O)[nH]1 [Pemetrexed] (partner 0.2 µM)
In short: as §1

Row | Cell Line | relative viability (Irinotecan + Foretinib; first compound 0.6325 µM) | relative viability (Irinotecan + Foretinib; first compound 2 µM) | relative viability (Irinotecan + Foretinib; first compound 6.325 µM) | relative viability (Irinotecan + Foretinib; first compound 20 µM) | relative viability (MK-8033 + Dasatinib; first compound 0.02 µM) | relative viability (MK-8033 + Dasatinib; first compound 0.06325 µM) | relative viability (MK-8033 + Dasatinib; first compound 0.2 µM) | relative viability (MK-8033 + Dasatinib; first compound 0.6325 µM) | relative viability (MK-8033 + Dasatinib; first compound 2 µM) | relative viability (Irinotecan + Pemetrexed; first compound 0.6325 µM) | relative viability (Irinotecan + Pemetrexed; first compound 2 µM) | relative viability (Irinotecan + Pemetrexed; first compound 6.325 µM) | relative viability (Irinotecan + Pemetrexed; first compound 20 µM) | relative viability (MK-8033 + Pemetrexed; first compound 0.02 µM) | relative viability (MK-8033 + Pemetrexed; first compound 0.06325 µM) | relative viability (MK-8033 + Pemetrexed; first compound 0.2 µM) | relative viability (MK-8033 + Pemetrexed; first compound 0.6325 µM) | relative viability (MK-8033 + Pemetrexed; first compound 2 µM)
1 | NCI-H2228 | 0.925 | 0.731 | 0.293 | 0.238 | 0.586 | 0.517 | 0.471 | 0.446 | 0.482 | 0.363 | 0.36 | 0.336 | 0.442 | 0.274 | 0.343 | 0.365 | 0.308 | 0.325
2 | NCI-H2342 | 1.17 | 0.928 | 0.826 | 0.525 | 0.329 | 0.277 | 0.35 | 0.33 | 0.352 | 0.452 | 0.807 | 0.845 | 0.461 | 0.729 | 0.805 | 0.773 | 0.814 | 0.752
3 | NCI-H2347 | 0.53 | 0.662 | 0.41 | 0.665 | 0.288 | 0.317 | 0.314 | 0.362 | 0.354 | 0.429 | 0.427 | 0.342 | 0.427 | 0.462 | 0.423 | 0.434 | 0.356 | 0.415
4 | NCI-H2405 |  | 0.897 | 0.394 | 0.307 | 0.185 | 0.202 | 0.228 | 0.213 | 0.21 |  | 1.12 | 0.315 | 0.256 | 1.04 | 1.01 | 0.963 | 1.06 | 1.11
5 | NCI-H3122 | 0.833 | 0.236 | 0.183 | 0.171 | 0.734 | 0.655 | 0.586 | 0.814 | 0.876 | 0.205 | 0.202 | 0.139 | 0.14 | 0.201 | 0.201 | 0.195 | 0.188 | 0.198
6 | PC-3 [JPC-3] | 0.912 | 0.667 | 0.323 | 0.368 | 0.935 | 0.939 | 0.948 | 1.02 | 0.966 | 0.512 | 1.25 | 0.522 | 0.463 | 1.07 |  | 0.99 | 1.1 | 1.07
7 | PC-14 | 0.935 | 0.806 | 0.431 | 0.189 | 0.254 | 0.181 | 0.246 | 0.232 | 0.245 | 0.155 | 0.175 | 0.136 | 0.111 | 0.143 | 0.121 | 0.142 | 0.149 | 0.135
8 | RERF-LC-KJ | 0.956 | 0.815 | 0.518 | 0.411 | 0.648 | 0.742 | 0.752 | 0.631 | 0.746 | 0.321 | 0.435 | 0.44 | 0.211 | 0.459 | 0.467 | 0.501 | 0.462 | 0.471
9 | SK-LU-1 | 0.623 | 0.382 | 0.295 | 0.224 | 0.153 | 0.224 | 0.182 | 0.185 | 0.191 | 0.521 | 0.455 | 0.334 | 0.276 | 0.974 | 0.944 | 0.929 | 0.625 | 0.956
10 | SK-MES-1 | 0.915 | 0.644 | 0.441 | 0.285 | 0.347 | 0.337 | 0.427 | 0.365 | 0.411 | 0.839 | 0.808 | 0.312 | 0.142 | 0.986 | 0.949 | 0.904 | 0.892 | 0.853
11 | SW 900 | 0.898 | 0.667 | 0.393 | 0.448 | 0.378 | 0.394 | 0.476 | 0.907 | 0.424 |  | 0.538 | 0.36 | 0.406 | 0.489 | 0.401 | 0.47 | 0.507 | 0.463
12 | SW 1573 | 0.848 | 0.786 | 0.463 | 0.195 | 0.444 | 0.508 | 0.502 | 0.424 | 0.466 |  | 0.553 | 0.176 | 0.0829 | 0.866 | 0.807 | 0.766 | 0.834 | 0.791
